In a melting point compilation (Tetko et al.; mined from patent text by program, amines drawn as free bases though some values may be those of a salt):

melting point [°C] | Compound
71.5 to 72.5 | CC(=O)Cc1ccc(-n2ccnc2)cc1
113 to 114 | COC(=O)C1=CC(=O)CC(c2ccc(Cl)cc2)N1 (centres undefined)
105 to 106 | CC(C)OC(=O)c1cc(Cl)c(Cl)c(Cl)n1
74 to 75 | CC(C)(C)OC(=O)C=Cc1ccc2ccccc2c1
83 to 84 | O=Cc1coc(C(O)c2ccc(Br)cc2)c1 (centres undefined)
125 to 128 | C[C@@H](Nc1nc(Nc2cccc(NS(C)(=O)=O)c2)nc2[nH]ccc12)C(C)(C)C
47 to 57 | CC(C)c1cc(CCC(=O)OCC(C)(C)C2OCC3(CO2)COC(C(C)(C)COC(=O)CCc2cc(C(C)C)c(O)c(C(C)(C)C)c2)OC3)cc(C(C)(C)C)c1O (centres undefined)
165 to 166 | COc1cc(C(C)C)c(NC(=O)CN2CCN(CCSc3nc4cccc([N+](=O)[O-])c4o3)CC2)c(C(C)C)c1
130 | Nc1ccc(NCCO)c(S(=O)(=O)CCO)c1
199 | Cc1scc(C2=NOCCO2)c1S(=O)(=O)NC(=O)n1nc(OC(C)C)n(C)c1=O
98 to 99 | CC1(c2cc(-c3cccc(CC4SC(N5CCOCC5)=NC4=O)c3)ccc2O)CCCCC1 (centres undefined)
67 to 70 | CCOC(=O)[C@@H](NC(=O)[C@H](CC(C)C)NC(=O)OC(C)(C)C)[C@@H](C)O
160 to 161 | COc1ccc(-c2ncn(-c3cc(OC)c(OC)c(OC)c3)c2-c2cc(OC)c(OC)c(OC)c2)cc1OC
73 to 75 | c1ccc(C(=C2CCN(CCN3CCNCC3)CC2)c2ccccc2)cc1
121 to 122 | CCc1nc2c(-c3c(C)cc(C)cc3C)ncnc2n1Cc1ccccc1
161 to 163 | CCCc1nc2c(C)cnc(C(=O)O)c2n1Cc1ccc(-c2ccccc2-c2nnn[nH]2)cc1
218 to 221 | Cc1c(C#N)c(NC(=O)c2ccccc2)n(C(C)c2ccccc2)c1C (centres undefined)
140 | CCCCCCCCCCCCCCCCCCOC(=O)c1ccc(C(=O)OCCCCCCCCCCCCCCCCCC)cc1
127 to 128 | COC(=O)Cn1c(=S)sc2ccccc21

melting point [°C] | Compound
90 to 91 | CCOC(=O)CCc1cn(-c2ccc([N+](=O)[O-])cn2)nc1C(C)C
205 | Cc1c(CC=CN2CCN3c4cc(F)ccc4CCC3C2)cnn1-c1cc(N(C)C)nc(N)n1 (centres undefined)
215 to 217 | CCc1nc2ncnc(-c3c(C)cc(C)cc3C)c2[nH]1
172 | CCc1ccc(S(=O)(=O)n2c(COC(C)(C)C(=O)O)cc3nc(Cl)ccc32)cc1
65 | COC(=O)C(=C(C)C)N1C(=O)C(NC(=O)COc2ccccc2)C1SN1CCCCC1 (centres undefined)
160 to 162 | CCN(CC)CCNC(=O)c1cc(Cl)c(N)cc1OCC(=O)N1CCCC1
142 to 143 | CC(=O)NCCCC(=O)N1CCCC2=C1CCc1cc(Cl)ccc12
105 to 107 | CC(C(=O)O)c1ccc(Oc2ccc(Cl)cc2)cc1 (centres undefined)
121 | N#Cc1c(CNC(=O)c2ccc(-n3cccc3)cc2)nn(-c2ccc(Cl)cc2Cl)c1-c1ccc(Cl)cc1
> 240 | O=C(NCc1ccn(C2=CC3=C(CC2)CCc2[nH]c(=O)c(=O)[nH]c23)c1)Nc1ccccc1
198 to 200 | O=c1[nH]ncc(Cl)c1NCCCN1CCC(c2noc3cc(F)ccc23)CC1
63 to 65 | C=CCNS(=O)(=O)c1ccc(Br)cc1
102 to 104 | CSC(=NC(C)=O)N(C)N=Cc1ccccc1
121 | CCOC(=O)C1=C(N2CCCC2)N=C(C)C(C(=O)OCC)C1c1cccc2ccccc12 (centres undefined)
158 | CCN(C(=O)CN(C(=O)CNC(=O)Nc1cccc(C)c1)c1ccccc1)c1ccccc1
141 | C=CC1(C=CC)OC(=O)N(c2cc(Cl)cc(Cl)c2)C1=O (centres undefined)
126 to 128 | CCCCC(=O)N1CCN(C(=O)Nc2ccccc2CCc2cc(C(C)(C)C)c(O)c(C(C)(C)C)c2)CC1
126 to 128 | N#Cc1cnc2ccsc2c1Sc1ccc(Cl)cc1Cl
260 to 261 | COc1cc(CCC(=O)Nc2nc3ccccc3s2)ccc1C(=O)/C=C/C(=O)O

The remaining lines, values behind:

Compound | melting point [°C]
O=C(O)c1ccc(Cl)cc1NC(=O)C(CS)Cc1ccccc1 (centres undefined) | 134 to 136
O=C(NCC1Cc2cc(Cl)cc(-c3ccsc3)c2O1)OCc1ccccc1 (centres undefined) | 90 to 92
O=C(O)CCCC(=O)c1ccc2c(c1)CCO2 | 131 to 133
COC(=O)CC[C@H](NC(=O)CCCCC=Cc1cnc2nc(NC(=O)C(C)(C)C)nc(O)c2c1)C(=O)OC | 79 to 81
CCCCCCCc1ccc(-c2nc(-c3ccccc3Cl)nn2C)cc1 | 64 to 67
CCOCCOc1ccc(CN/C=C2\C(=O)NC(=O)c3ccc(Br)cc32)cc1O | 179 to 180
Cc1c(CC(=O)O)c2cc(O)ccc2n1C(=O)c1cccc(Cl)c1 | 158 to 160
OC1CCNC(Cc2ccccc2)C1 (centres undefined) | 114
Cc1nc(N2N=C(c3ccc([N+](=O)[O-])cc3)c3cc4c(cc3CC2C)OCO4)cs1 (centres undefined) | 178 to 190
Cc1sc(-c2ccccc2)nc1COc1ccc(C#N)cn1 | 124 to 125
CC(C)(CO)c1ccc(C(=O)Nc2cn3cc(C(F)(F)F)ccc3n2)cc1 | 227 to 229
O=C(Oc1ccccc1)c1ccc(Oc2ccc([N+](=O)[O-])cc2)cc1O | 118 to 120
O=C(O)Cc1ccc(-c2ccc(F)cc2F)c(F)c1 | 145 to 147
O=C1N=CNC(O)C1C(=O)Nc1ccccc1 (centres undefined) | 200 to 208
COc1ccc(CC2C3=C(CCCC3)CCN2C(=O)C2CCC2)cc1 (centres undefined) | 89 to 91
Nc1cccc2c1OCCO2 | 134 to 135
CCOC(=O)C1C(=O)C=C(OCC)CC1c1ccc(C)cc1 (centres undefined) | 75 to 77
Cc1c(C=O)c2c(c(C)c1NC(=O)CC(C)(C)C)C(c1ccc(C(C)C)cc1)CO2 (centres undefined) | 177 to 178
Cc1cc(=O)c2c(o1)CCOC2 | 107 to 110
O=C(c1cccs1)c1cnn2c(-c3cccc(NC(=S)Nc4cccc(-c5ccnc6c(C(=O)c7cccs7)cnn56)c4)c3)ccnc12 | 151 to 153
CCOC=Nc1ccc2nnc(-c3ncc([N+](=O)[O-])n3C)n2n1 | 134 to 135

Compound | melting point [°C]
ClC(Cl)(Cl)c1nnc(-c2cccc3ccccc23)o1 | 90 to 91.5
O=S1(=O)CCN(c2nc(Cl)nc3c(Cl)ncnc23)CC1 | 270 to 273
Cc1c(C(=O)N(N)c2ccccc2)nn(-c2ccc(Cl)cc2Cl)c1-c1ccc(Cl)s1 | 154 to 155
COc1cc(O)c2c(=O)c(OC(C)C)c(-c3ccc(O)c(OC)c3)oc2c1 | 169 to 171
c1ccc(-c2nc3ncccc3[nH]2)nc1 | 139 to 142
O=C(O)c1coc2ccc3ccc(O)cc3c2c1=O | 294 to 296
Oc1ccc(-c2ccc(OC(F)(F)F)cc2)cc1 | 140
CCOc1cc(OCc2ccc(OCc3nc(-c4ccccc4)oc3C)cc2)ccc1CCC(=O)O | 135 to 136
CCC(=O)Nc1cccc(-c2ccc(Cl)nn2)c1 | 184 to 187
O=C1c2c(Cl)cccc2-n2cnc(/C=C\Cl)c2[C@@H]2CCN12 | 189 to 191
COc1ccc2c(c1O)CCN(C=O)[C@@H]2c1cc(OC)c(OC)c(OC)c1 | 190 to 192
COC(=O)C(=O)NC(=O)CC(F)=C(F)F | 33 to 34
CCOC(=O)C1=C(C)NC(N=CN(C)C)=C(C(=O)OCC)C1c1cccc(Cl)c1 (centres undefined) | 150
CCNC(=O)C(C)(C)N=NC(C)(C)C(=O)NCC | 98
COc1cc2nc(N)nc(-c3ccccc3I)c2cc1OC | 225 to 230
CCn1cc(CC(=O)O)c(OCCCc2ccc(OCOC)cc2Oc2ccc(C(F)(F)F)cn2)n1 | 82 to 83
CCc1cc(OCc2ccc(-c3ccccc3C#N)cc2)c2c(n1)CCCC2 | 147 to 148
CC(=O)OCc1nc(C(C)C)c(Sc2cc(Cl)cc(Cl)c2)n1C | 92 to 93
Cc1c(NC(=O)c2ccc(OC[C@@H]3CCCO3)cc2)ccc2cc(CN3CCC(C)(O)CC3)[nH]c12 | 169
Cc1nc(C(C)O)cn1Cc1ccccc1 (centres undefined) | 162 to 168
CC1(C)Oc2cc(N)c(C#N)cc2[C@@H](N2CCCC2)[C@@H]1O (relative stereo) | 158 to 160

Compound | melting point [°C]
COc1ccc(-n2cnc(-c3cc(OC)cc(OC)c3)c2-c2ccc(OC)c(O)c2)cc1 | 131 to 134
CN1CCN(c2cc(Cl)nc(-c3ccccc3)n2)CC1 | 91 to 92.5
O=c1cnc2c(NCCO)nc(SCc3cccc(C(F)(F)F)c3F)nc2[nH]1 | 221 to 222
Cc1ccc(S(=O)(=O)N2CCc3ccccc3C(Oc3cccc(C(F)(F)F)c3)C2)cc1 (centres undefined) | 112 to 114
NC(=O)c1ccc(C(F)(F)F)nc1N | 227 to 229
CCCCCCCCCCCCc1ccc(CCC(N)(CO)CCO)cc1 (centres undefined) | 75 to 77
Cc1nnc(C(O)CCCCCCOc2ccc(OCc3ccccc3)cc2)o1 (centres undefined) | 98 to 100
OCC1OC(SCCCc2ccccc2)C(O)C(O)C1O (centres undefined) | 122 to 123
CCOCCOc1ccc(CCNC(=O)c2cnc3ccccc3c2)cc1S(=O)(=O)NC(=S)NC | 88 to 91
O=S1c2ccccc2-c2[nH]nc(-c3ccccc3)c21 (centres undefined) | 222 to 224
CC(Oc1ncn(-c2ccc(Cl)cc2)n1)C(=O)O (centres undefined) | 196 to 198
CCCCCCCCCC[C@H](CC(=O)OC(C)(C)C)C(=O)N1C(=O)OC[C@@H]1C(C)C | 42 to 43
O=C(c1ccccc1)c1cnc2c(-c3cc(-c4ccccc4)cs3)cnn2c1O | 277 to 290
CCC(C)c1ccc2c(c1)C1(O)C(=O)c3ccccc3C1(O)O2 (centres undefined) | 134 to 136
CCN(CC)C(=O)n1ccc(S(=O)(=O)c2c(C)cc(Br)cc2C)n1 | 96 to 100
CC(=S)NC[C@H]1CN(c2ccc(-c3nc(Cn4cccn4)cs3)c(F)c2)C(=O)O1 | 166 to 168
CN(C)C(=O)CCc1c[nH]c(-c2cccs2)c1 | 107 to 109
COC1=C(OC)C(=O)C2=C(CCC(CCn3ccccc3=O)CC2)C1=O | 85 to 89
CCCC1=C(C(=O)OCC)C(c2cccnc2)c2c[nH]nc2N1 (centres undefined) | 251
